Results on 1 compound are retold here after PMC6934184, “Selective DNA-PKcs inhibition extends the therapeutic index of localized radiotherapy and chemotherapy” (The Journal of Clinical Investigation, 2019).

The experiment deals with T1, PTK2 (FAK) (Homo sapiens, UniProt Q05397).
T1 construct: purchased Thermo Fisher Scientific (Life Technologies) SelectScreen
In words: SelectScreen Z'LYTE. Type of experiment: biochemical. The essentials:
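SelectScreen broad panel; activity (Z'LYTE, Adapta) plus binding formats. ATP: Km app for CSF1R Z'LYTE; 10 for CAMK1 Adapta. Readout = % per kinase.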

Each structure is given as a SMILES string.

T1 sequence (Q05397 whole entry): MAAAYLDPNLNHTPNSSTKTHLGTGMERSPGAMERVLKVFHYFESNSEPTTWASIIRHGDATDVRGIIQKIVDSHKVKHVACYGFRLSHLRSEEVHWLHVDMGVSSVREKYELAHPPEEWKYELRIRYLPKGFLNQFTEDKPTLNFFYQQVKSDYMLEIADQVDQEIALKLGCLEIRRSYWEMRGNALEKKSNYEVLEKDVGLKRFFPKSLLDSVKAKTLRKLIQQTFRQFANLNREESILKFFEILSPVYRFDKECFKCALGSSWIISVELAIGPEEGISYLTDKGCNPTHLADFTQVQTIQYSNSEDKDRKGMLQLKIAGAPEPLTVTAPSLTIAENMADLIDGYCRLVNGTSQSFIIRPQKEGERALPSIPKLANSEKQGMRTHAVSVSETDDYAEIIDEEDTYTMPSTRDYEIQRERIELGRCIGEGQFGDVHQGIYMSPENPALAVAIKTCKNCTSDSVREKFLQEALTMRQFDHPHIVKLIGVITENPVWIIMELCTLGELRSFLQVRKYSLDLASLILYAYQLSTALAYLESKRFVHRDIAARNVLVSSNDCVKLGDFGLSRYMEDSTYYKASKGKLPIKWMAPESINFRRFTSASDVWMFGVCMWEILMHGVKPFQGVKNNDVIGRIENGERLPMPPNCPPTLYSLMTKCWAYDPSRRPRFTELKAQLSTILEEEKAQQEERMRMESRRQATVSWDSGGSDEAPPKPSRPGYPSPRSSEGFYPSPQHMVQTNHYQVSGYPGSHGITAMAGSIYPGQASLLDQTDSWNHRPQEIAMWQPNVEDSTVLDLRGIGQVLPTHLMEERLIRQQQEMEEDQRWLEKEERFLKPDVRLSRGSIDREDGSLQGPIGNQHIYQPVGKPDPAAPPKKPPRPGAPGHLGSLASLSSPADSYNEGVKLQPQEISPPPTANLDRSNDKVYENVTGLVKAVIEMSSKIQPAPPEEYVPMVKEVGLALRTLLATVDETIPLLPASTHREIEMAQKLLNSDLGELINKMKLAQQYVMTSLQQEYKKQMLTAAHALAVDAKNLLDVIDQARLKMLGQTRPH

As for `CN(C(=O)CN1CCOCC1)c1ccc2sc3c(-c4cccc5c(=O)cc(N6CC7CCC(C6)O7)oc45)cccc3c2c1` [NU5455], the inhibition at 1 µM turned out to be 5.1%.
